Source: PMC11222147, “Host defence peptide plectasin targets bacterial cell wall precursor lipid II by a calcium-sensitive supramolecular mechanism” (Nature Microbiology, 2024)
Values after ≈ are worked out from the molar mass of the structure shown.

Experiments:
[1] = Carboxyfluorescein leakage from LUVs
Experimental: Vesicle leakage assays were conducted using LUVs filled with carboxyfluorescein. Carboxyfluorescein solutions were made by suspending ~50 mM carboxyfluorescein in H2O and adjusting the pH to ~7.2 using 10 M NaOH. The resulting solution was diluted with H2O to match the osmolarity of the outside buffer, which consisted of 10 mM Tris and 100 mM NaCl, at pH = 7.2. LUVs were prepared as described above. Non-enclosed carboxyfluorescein was removed using a Sephadex G50 column equilibrated in outside buffer. Measurements were conducted on a Cary Eclipse spectrophotometer at 20 °C under constant stirring by monitoring the fluorescence intensity at 515 nm (excitation at 492 nm, 5 nm slit width, 0.1 s averaging time). A total lipid concentration of 25 µM was used for all experiments. Fluorescence traces were normalized using the fluorescence baseline at the start as 0% and fluorescence after treatment with 0.1 vol% Triton-X100 as 100%.

S. simulans = test: Bacterial permeabilization assay (DiSC2(5), SYTOX green); type: cell-based, Staphylococcus simulans; conditions: DiSC2(5) and SYTOX green, concentrations higher than the MIC, 20 °C
Experimental: Overnight cultures (37 °C, TSB) of S. simulans were diluted to OD600 = 0.1 and grown until mid-log phase (OD600 = 0.5–0.8) and collected by centrifugation (2,000 × g, room temperature, 5 min). Cell pellets were washed with buffer (10 mM Tris, 50 mM NaCl and 0.5% w/v glucose at pH = 7.2), resuspended to OD600 = 10 and stored at 4 °C until use. All assays were performed on a Cary Eclipse (FL0904M005) fluorometer. Measurements were done using bacterial suspensions at OD600 = 0.05 in the aforementioned buffer under constant stirring at 20 °C in a 4 × 10 mm quartz cuvette. About 0.2 µM 3,3′-diethylthiadicarbocyanine iodide or 0.25 µM SYTOX green was added and equilibrated for 2 min before addition of an antibiotic. For 3,3′-diethylthiadicarbocyanine iodide, we used excitation and emission wavelengths of 650 nm and 670 nm, respectively, while for SYTOX green, we used 504 nm and 523 nm. About 5 nm slits were used, and fluorescence signal was averaged every 0.3 s.

[2] = Confocal microscopy of GUVs doped with Und-NBD-lipid II; conditions: GUVs 0.4 mol% Und-NBD-LII in DOPC, 1 μM antibiotic
Experimental: GUVs were prepared by electroformation using in-house build Teflon cells with two titanium wires as electrodes. About 1 μl of 0.5 mM DOPC with 0.4 mol% NBD–lipid II in 2:1 CHCl3/MeOH was brushed on both electrodes and thoroughly dried under vacuum. Next, the cell was filled with 350 μl 300 mM sucrose, and GUVs were formed by applying an oscillating voltage (sine wave, 2 V, 10 Hz) for 90 min and released from the electrodes (square wave, 2 V, 2 Hz). Microscopy slides were precoated using a 1 mg ml^−1 BSA solution. Slides were filled with 300 μl 300 mM glucose solution, followed by addition of the antibiotic and finally 30–50 μl GUV solution. The GUVs were imaged using a Zeiss LSM 880 confocal microscope with a ×63/1.2NA glycerol objective lens. Green fluorescence (530–545 nm) was detected after excitation with a 488 nm laser.

[3] = Tryptophan fluorescence spectroscopy, lipid II binding affinity
Experimental: Plectasin’s single tryptophan can be used to monitor insertion into the membrane. Measurements were done on a Cary Eclipse (FL0904M005) fluorimeter at 20 °C under constant stirring in a 4 × 10 mm quartz cuvette. For titration experiments, the cuvette was oriented perpendicular to the excitation beam to minimize scattering. LUVs with or without 2 mol% lipid II (prepared as described above at 1–5 mM total lipid concentration) were titrated to 100 nM plectasin in 50 mM HEPES, 150 mM NaCl at pH = 7.2. Fluorescence was excited at 280 nm (5 nm slit) and recorded between 300 and 400 nm (10 nm slit) at 1 nm intervals with 1 s averaging per point. Spectra were corrected for a blank using buffer and for scattering using a titration series in the absence of plectasin. Corrected spectra were fit with log-normal distributions, and the shift of the resulting wavelength of maximum fluorescence (Δλmax) as a function of lipid II concentration on the outside of the vesicles was fit using a quadratic binding equation[54] to obtain the binding affinities.

[4] = ITC of bivalent cation binding to plectasin in solution; conditions: mean of duplicate, read-out: Kd, Mg^2+ binding to plectasin (ITC)
[5] = HS-AFM oligomerization on supported lipid bilayers doped with lipid II; conditions: DOPC/DOPG (1:1), 1% lipid II, 1 mM Ca^2+
Experimental: HS-AFM imaging was performed on a supported lipid bilayer deposited on mica using an amplitude modulation tapping mode HS-AFM from RIBM (Ando type)[11]. The lipid compositions are as stated in the experimental conditions of the corresponding results. Short cantilevers (∼7 μm) with a nominal spring constant of 0.15 N m^−1 were used (USC-F1.2-k0.15, NanoWorld) for all experiments. A minimal imaging force was applied by using a small set-point amplitude, typically 80% of the free amplitude (for 1–2 nm of free amplitude). […] Imaging was started on the lipid bilayer surface in recording buffer. […] All reported experiments were repeated for at least three times for each condition. Image analysis was done using Igor Pro version 6.22 (Wavemetrics) with RIBM script and ImageJ version 1.501 with minimal image corrections (tilt, drift and background corrections). The time stamps on HS-AFM videos are relative to plectasin addition into the liquid chamber. Image acquisition rate varied from 0.5 frames per second to 2 frames per second (see the figure/video legends).

S. pneumoniae ATCC6305 = test: MIC assays under standard conditions; type: cell-based, Streptococcus pneumoniae; conditions: Supplementary Table 1; cation-adjusted MHB + 5% lysed horse blood, 5% CO2, 20–24 h
Summary of the method: (§1)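 Broth microdilution in cation-adjusted MHB, inoculum from OD600 0.5 TSB culture diluted 100-fold, 37 °C with shaking. Streptococci: 5% lysed horse blood, 5% CO2, MIC read visually at 20–24 h; S. simulans read at 16–20 h.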

S. pneumoniae serotype 8 = test: MIC assays under standard conditions; type: cell-based, Streptococcus pneumoniae; conditions: Supplementary Table 1; cation-adjusted MHB + 5% lysed horse blood, 5% CO2, 20–24 h
Summary of the method: as §1

[6] = ITC of bivalent cation binding to plectasin in solution; conditions: mean of duplicate, read-out: Kd, Ca^2+ binding to plectasin (ITC)
S. simulans 22 = test: MIC assays under standard conditions; type: cell-based, Staphylococcus simulans
Summary of the method: as §1

CC[C@H](C)[C@@H]1NC(=O)[C@H](CO)NC(=O)[C@H](CCCCN)NC(=O)[C@@H]2CSSC[C@@H](C(=O)N[C@@H](Cc3ccc(O)cc3)C(=O)O)NC(=O)[C@H](CCCCN)NC(=O)[C@@H]3CSSC[C@H](NC(=O)[C@H](CCC(N)=O)NC(=O)[C@H](CCSC)NC(=O)[C@H](CC(=O)O)NC(=O)[C@H](CC(=O)O)NC(=O)[C@H](CCC(=O)O)NC(=O)[C@H](CC(=O)O)NC(=O)[C@H](Cc4c[nH]c5ccccc45)NC(=O)[C@@H]4CCCN4C(=O)CNC(=O)[C@H](CC(N)=O)NC(=O)[C@@H](NC(=O)CNC(=O)[C@H](Cc4ccccc4)NC(=O)CN)CSSC[C@H](NC(=O)[C@H](Cc4ccc(O)cc4)NC(=O)CNC(=O)CNC(=O)[C@H](CCCCN)NC(=O)[C@H](Cc4ccc(O)cc4)NC(=O)CNC(=O)[C@H](CCCCN)NC1=O)C(=O)N[C@@H](C)C(=O)N[C@@H](CCCCN)C(=O)NCC(=O)NCC(=O)N[C@@H](Cc1ccccc1)C(=O)N[C@@H](C(C)C)C(=O)N3)C(=O)N[C@@H](Cc1c[nH]cn1)C(=O)N[C@@H](CC(N)=O)C(=O)N[C@@H](Cc1c[nH]cn1)C(=O)N2 [Plectasin wt]
carboxyfluorescein leakage (in words) ([1]; DOPC Lipid II vesicles, in the presence of calcium): efficiently permeabilized
carboxyfluorescein leakage (in words) ([1]; phospholipids native to gram-positive bacteria included in the membrane, with calcium): virtually no leakage
leakage in S. simulans membranes (in words) (S. simulans): does not cause leakage
lipid II cluster/domain formation on GUVs [2]: cluster formation
Kd ([3]; DOPC liposomes, 1 mM Mg^2+): 80 nM
Kd ([3]; DOPC liposomes, without bivalent ions (100 μM EDTA)): 155 nM
Kd ([3]; anionic DOPC/DOPG (1:1) liposomes, 1 mM Ca^2+): 1 nM
Kd ([3]; anionic DOPC/DOPG (1:1) liposomes, 1 mM Mg^2+): 4 nM
Kd ([3]; anionic DOPC/DOPG (1:1) liposomes, without bivalent ions (100 μM EDTA)): 27 nM
lipid II binding affinity increase in the presence of Ca^2+ ([3]; neutral DOPC liposomes, with Ca^2+ vs without bivalent ions): > 100 fold
Kd ([3]; zwitterionic DOPC liposomes, 2 mol% lipid II, 1 mM Ca^2+, 100 nM plectasin, HEPES pH 7.2, 20 °C): 1 nM
Kd [4]: 195 ± 35 nM
plectasin concentration giving full coverage (AFM) [5]: 400 nM
plectasin concentration giving partial coverage (AFM) [5]: 300 nM
plectasin concentration above which supra-structures emerge (AFM) ([5]; 10 min after addition): > 200 nM
Minimum inhibitory concentration, S. pneumoniae ATCC6305 (S. pneumoniae ATCC6305): ≤ 0.78 µg/mL
Minimum inhibitory concentration, S. pneumoniae serotype 8 (S. pneumoniae serotype 8): 1,56 μg/mL
Kd [6]: 159 ± 69 nM
Minimum inhibitory concentration, S. simulans (S. simulans 22; Supplementary Table 1, cation-adjusted MHB, 37 °C, 16–20 h): 0,78 μg/mL
MIC expressed as plectasin concentration (S. simulans 22; corresponding to 0.78 µg ml^−1): 0.177 µM (≈ 0.779 µg/mL)
